Laboratory results taken from patent US20250059188A1, “ARYLSULPHONAMIDE COMPOUNDS” (Anaxis Pharma Pty Ltd, priority 2021, published 2025).

Assays:
[1] = test system: Immortalised Mouse Dermal Fibroblasts (MDFs); assay: Inhibition of TSI induced necroptosis in mouse dermal fibroblasts (CellTitre-Glo); settings: Mus musculus, Fibroblast, 3 h, MDF cells, TSI cocktail (TNF, Smac mimetic, IDN-6556), read-out: Inhibition of TSI-induced necroptosis (IC50 cell-based assay) in MDF
Summary of the method: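 Immortalised MDFs (2200 cells/well, DMEM + 7.4% FBS) pretreated 30 min with compound (36 μM top, 1:3, 10 points, 0.3% DMSO), then 3 h with TNF 100 ng/ml, Smac mimetic 500 nM and IDN-6556 10 μM at 37 °C. Viability by CellTiter-Glo luminescence; IC50 from 4-parameter logistic fit.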

mouse MLKL (full length) = mouse MLKL (full length) (Mus musculus (Mouse), UniProt Q9D2Y4); assay: KINOMEscan binding assay, mouse MLKL (full length); settings: equilibrium dissociation constant
Procedure: Binding affinity of the test compounds for human MLKL (full length), mouse MLKL (full length), human RIPK1 and human RIPK3 was determined using the KINOMEscan™ technology developed by DiscoverX (USA; http://www.discoverx.com). The assay was conducted according to manufacturer instructions.
Kinase assays. For most assays, kinase-tagged T7 phage strains were grown in parallel in 24-well blocks in an E. coli host derived from the BL21 strain. E. coli were grown to log-phase and infected with T7 phage from a frozen stock (multiplicity of infection=0.4) and incubated with shaking at 32° C. until lysis (90-150 minutes). The lysates were centrifuged (6,000×g) and filtered (0.2 μm) to remove cell debris. The remaining kinases were produced in HEK-293 cells and subsequently tagged with DNA for qPCR detection. […] The liganded beads were blocked with excess biotin and washed with blocking buffer (SeaBlock (Pierce), 1% BSA, 0.05% Tween 20, 1 mM DTT) to remove unbound ligand and to reduce non-specific phage binding. […] All reactions were performed in polypropylene 384-well plates in a final volume of 20 μL. […] The kinase concentration in the eluates was measured by qPCR.
An 11-point 3-fold serial dilution of each test compound was prepared in 100% DMSO at 100× final test concentration and subsequently diluted to 1× in the assay (final DMSO concentration=1%). Most Kos were determined using a compound top concentration=30,000 nM.
KD for each test compound was calculated with a standard dose-response curve using the Hill equation (equation (1)): […]
The Hill Slope was set to −1.
Curves were fitted using a non-linear least square fit with the Levenberg-Marquardt algorithm.

Chain of mouse MLKL (full length) (Q9D2Y4 whole entry): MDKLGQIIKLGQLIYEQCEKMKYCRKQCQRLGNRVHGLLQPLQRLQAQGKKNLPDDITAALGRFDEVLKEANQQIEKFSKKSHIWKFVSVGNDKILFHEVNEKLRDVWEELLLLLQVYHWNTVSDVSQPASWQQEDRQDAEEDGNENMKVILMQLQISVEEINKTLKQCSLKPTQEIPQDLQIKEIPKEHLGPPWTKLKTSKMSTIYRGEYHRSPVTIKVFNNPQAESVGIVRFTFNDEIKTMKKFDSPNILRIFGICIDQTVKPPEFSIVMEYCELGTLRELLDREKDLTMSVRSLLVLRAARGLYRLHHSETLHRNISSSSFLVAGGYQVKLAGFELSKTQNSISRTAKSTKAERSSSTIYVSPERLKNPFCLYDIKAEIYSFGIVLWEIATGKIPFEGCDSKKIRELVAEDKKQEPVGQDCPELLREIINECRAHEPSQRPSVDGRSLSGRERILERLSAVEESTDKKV

| Structure (SMILES) | IC50 [1] [nM] | Kd (mouse MLKL (full length)) [nM] |
| --- | --- | --- |
| C[C@H](Oc1cc(-c2nn(C)c3c(-c4cnn(C5CCOCC5)c4)cnc(N)c23)ccc1NS(=O)(=O)C(F)F)c1ccc(F)cc1 [Compound 19, (S)-N-(4-(4-amino-1-methyl-7-(1-(tetrahydro-2H-pyran-4-yl)-1H-pyrazol-4-yl)-1H-pyrazolo[4,3-c]pyridin-3-yl)-2-(1-(4-fluorophenyl)ethoxy)phenyl)-1,1-difluoromethanesulfonamide] | 100 to 1000 | < 1 |
| Cn1nc(-c2ccc(NS(=O)(=O)C(F)F)c(OCc3ccc(F)cc3)c2)c2c(N)ncc(-c3cnn(C4CCOCC4)c3)c21 [Compound 13, N-(4-(4-amino-1-methyl-7-(1-(tetrahydro-2H-pyran-4-yl)-1H-pyrazol-4-yl)-1H-pyrazolo[4,3-c]pyridin-3-yl)-2-((4-fluorobenzyl)oxy)phenyl)-1,1-difluoromethanesulfonamide] | 1000 to 10000 | < 1 |
